Results taken from ChEMBL document CHEMBL1150976, “The selectivity of protein kinase inhibitors: a further update” (Biochem J, 2007).

Key:
[1] = molecular target: Mitogen-activated protein kinase 9 (Homo sapiens, UniProt P45984); assay: Percentage JNK2 activity remaining in the presence of 25uM inhibitor
[2] = molecular target: Mitogen-activated protein kinase 8 (Homo sapiens, UniProt P45983); assay: Percentage JNK1 activity remaining in the presence of 25uM inhibitor
[3] = species: Homo sapiens; assay: Percentage PHK activity remaining in the presence of 3uM inhibitor
[4] = molecular target: Mitogen-activated protein kinase 3 (Homo sapiens) (UniProt P27361); assay: Percentage ERK1 activity remaining in the presence of 3uM inhibitor
[5] = species: Rattus norvegicus; assay: Percentage AMPK activity remaining in the presence of 3uM inhibitor
[6] = molecular target: Mitogen-activated protein kinase 10 (Homo sapiens) (UniProt P53779); assay: Percentage JNK3 activity remaining in the presence of 3uM inhibitor
[7] = molecular target: Myosin light chain kinase, smooth muscle (Homo sapiens, UniProt Q15746); assay: Percentage SmMLCK activity remaining in the presence of 3uM inhibitor
[8] = molecular target: T1, Mitogen-activated protein kinase 12 (Homo sapiens) (UniProt P53778); assay: Percentage p38-gamma activity remaining in the presence of 3uM inhibitor
T1 sequence (whole entry): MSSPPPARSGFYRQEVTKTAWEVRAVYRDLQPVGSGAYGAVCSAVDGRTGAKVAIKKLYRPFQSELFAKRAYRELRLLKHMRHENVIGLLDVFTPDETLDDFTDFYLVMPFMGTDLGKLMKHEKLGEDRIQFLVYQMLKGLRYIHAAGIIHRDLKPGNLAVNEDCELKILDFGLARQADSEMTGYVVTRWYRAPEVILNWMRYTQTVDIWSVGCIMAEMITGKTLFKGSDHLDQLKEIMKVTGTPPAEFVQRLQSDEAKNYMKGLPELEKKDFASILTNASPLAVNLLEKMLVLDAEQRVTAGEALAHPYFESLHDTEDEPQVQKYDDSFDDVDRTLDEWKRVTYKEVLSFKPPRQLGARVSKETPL

[9] = molecular target: Serine/threonine-protein kinase pim-2 (Homo sapiens, UniProt Q9P1W9); assay: Percentage PIM2 activity remaining in the presence of 3uM inhibitor
[10] = molecular target: MAP/microtubule affinity-regulating kinase 3 (Homo sapiens) (UniProt P27448); assay: Percentage MARK3 activity remaining in the presence of 3uM inhibitor
[11] = molecular target: Casein kinase II (Homo sapiens) (UniProt P67870+P68400+P19784); assay: Percentage CK2 activity remaining in the presence of 3uM inhibitor; assay type: protein-complex assay
[12] = molecular target: Rho-associated protein kinase 2 (Homo sapiens) (UniProt O75116); assay: Percentage ROCK2 activity remaining in the presence of 3uM inhibitor
[13] = molecular target: cAMP-dependent protein kinase catalytic subunit alpha (Homo sapiens, UniProt P17612); assay: Percentage PKA activity remaining in the presence of 3uM inhibitor
[14] = molecular target: Dual specificity mitogen-activated protein kinase kinase 1 (Homo sapiens) (UniProt Q02750); assay: Percentage MKK1 activity remaining in the presence of 3uM inhibitor
[15] = molecular target: Rho-associated protein kinase 2 (Homo sapiens) (UniProt O75116); assay: Percentage ROCK2 activity remaining in the presence of 2uM inhibitor
[16] = molecular target: T2, Serine/threonine-protein kinase Nek2 (Homo sapiens) (UniProt P51955); assay: Percentage NEK2a activity remaining in the presence of 2uM inhibitor
T2 sequence (whole entry): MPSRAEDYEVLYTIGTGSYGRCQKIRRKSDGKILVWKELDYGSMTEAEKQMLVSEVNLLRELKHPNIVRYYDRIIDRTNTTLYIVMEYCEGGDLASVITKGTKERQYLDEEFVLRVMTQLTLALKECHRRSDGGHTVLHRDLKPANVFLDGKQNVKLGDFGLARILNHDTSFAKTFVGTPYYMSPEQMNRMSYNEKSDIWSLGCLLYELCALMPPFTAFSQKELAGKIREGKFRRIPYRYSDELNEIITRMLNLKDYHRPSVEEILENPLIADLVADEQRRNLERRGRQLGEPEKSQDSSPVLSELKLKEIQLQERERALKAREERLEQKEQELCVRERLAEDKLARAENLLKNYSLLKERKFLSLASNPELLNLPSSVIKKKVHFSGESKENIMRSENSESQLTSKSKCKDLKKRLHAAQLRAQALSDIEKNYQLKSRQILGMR

[17] = molecular target: Serine/threonine-protein kinase PAK 4 (Homo sapiens, UniProt O96013); assay: Percentage PAK4 activity remaining in the presence of 2uM inhibitor
[18] = molecular target: Ribosomal protein S6 kinase alpha-1 (Homo sapiens) (UniProt Q15418); assay: Percentage RSK1 activity remaining in the presence of 2uM inhibitor; conditions: filed as antagonist
[19] = molecular target: T3, MAP kinase-activated protein kinase 5 (Homo sapiens) (UniProt Q8IW41); assay: Percentage PRAK activity remaining in the presence of 2uM inhibitor
T3 sequence (whole entry): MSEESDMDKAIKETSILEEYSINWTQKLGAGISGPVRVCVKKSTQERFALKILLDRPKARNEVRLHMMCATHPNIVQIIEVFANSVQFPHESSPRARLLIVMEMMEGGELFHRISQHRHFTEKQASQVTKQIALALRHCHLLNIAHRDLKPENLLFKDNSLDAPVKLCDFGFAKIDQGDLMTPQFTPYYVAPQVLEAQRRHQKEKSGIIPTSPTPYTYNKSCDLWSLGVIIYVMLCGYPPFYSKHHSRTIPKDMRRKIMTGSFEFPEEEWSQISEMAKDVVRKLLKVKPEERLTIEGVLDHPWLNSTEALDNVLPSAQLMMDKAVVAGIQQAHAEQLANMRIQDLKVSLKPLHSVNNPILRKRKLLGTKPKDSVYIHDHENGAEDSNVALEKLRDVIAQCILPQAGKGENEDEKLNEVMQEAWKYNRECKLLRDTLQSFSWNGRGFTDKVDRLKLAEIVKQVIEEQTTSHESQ

[20] = molecular target: MAP/microtubule affinity-regulating kinase 3 (Homo sapiens) (UniProt P27448); assay: Percentage MARK3 activity remaining in the presence of 2uM inhibitor
[21] = molecular target: Ribosomal protein S6 kinase alpha-5 (Homo sapiens) (UniProt O75582); assay: Percentage MSK1 activity remaining in the presence of 2uM inhibitor
[22] = molecular target: Serine/threonine-protein kinase Nek7 (Homo sapiens) (UniProt Q8TDX7); assay: Percentage NEK7 activity remaining in the presence of 2uM inhibitor
[23] = molecular target: Ribosomal protein S6 kinase beta-1 (Homo sapiens, UniProt P23443); assay: Percentage S6K1 activity remaining in the presence of 2uM inhibitor
[24] = molecular target: T4, Aurora kinase C (Homo sapiens) (UniProt Q9UQB9); assay: Percentage Aurora C activity remaining in the presence of 2uM inhibitor
T4 sequence (whole entry): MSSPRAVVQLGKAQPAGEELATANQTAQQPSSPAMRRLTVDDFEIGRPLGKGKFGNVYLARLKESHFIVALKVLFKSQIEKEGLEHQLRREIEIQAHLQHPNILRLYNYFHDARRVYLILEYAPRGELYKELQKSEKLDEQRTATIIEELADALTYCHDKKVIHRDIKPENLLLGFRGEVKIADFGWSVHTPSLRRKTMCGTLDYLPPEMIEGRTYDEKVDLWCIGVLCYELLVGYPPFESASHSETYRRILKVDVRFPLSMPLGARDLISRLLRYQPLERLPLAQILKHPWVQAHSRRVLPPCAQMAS

Chain of Rho-associated protein kinase 2 (Homo sapiens) (O75116 whole entry, looked up): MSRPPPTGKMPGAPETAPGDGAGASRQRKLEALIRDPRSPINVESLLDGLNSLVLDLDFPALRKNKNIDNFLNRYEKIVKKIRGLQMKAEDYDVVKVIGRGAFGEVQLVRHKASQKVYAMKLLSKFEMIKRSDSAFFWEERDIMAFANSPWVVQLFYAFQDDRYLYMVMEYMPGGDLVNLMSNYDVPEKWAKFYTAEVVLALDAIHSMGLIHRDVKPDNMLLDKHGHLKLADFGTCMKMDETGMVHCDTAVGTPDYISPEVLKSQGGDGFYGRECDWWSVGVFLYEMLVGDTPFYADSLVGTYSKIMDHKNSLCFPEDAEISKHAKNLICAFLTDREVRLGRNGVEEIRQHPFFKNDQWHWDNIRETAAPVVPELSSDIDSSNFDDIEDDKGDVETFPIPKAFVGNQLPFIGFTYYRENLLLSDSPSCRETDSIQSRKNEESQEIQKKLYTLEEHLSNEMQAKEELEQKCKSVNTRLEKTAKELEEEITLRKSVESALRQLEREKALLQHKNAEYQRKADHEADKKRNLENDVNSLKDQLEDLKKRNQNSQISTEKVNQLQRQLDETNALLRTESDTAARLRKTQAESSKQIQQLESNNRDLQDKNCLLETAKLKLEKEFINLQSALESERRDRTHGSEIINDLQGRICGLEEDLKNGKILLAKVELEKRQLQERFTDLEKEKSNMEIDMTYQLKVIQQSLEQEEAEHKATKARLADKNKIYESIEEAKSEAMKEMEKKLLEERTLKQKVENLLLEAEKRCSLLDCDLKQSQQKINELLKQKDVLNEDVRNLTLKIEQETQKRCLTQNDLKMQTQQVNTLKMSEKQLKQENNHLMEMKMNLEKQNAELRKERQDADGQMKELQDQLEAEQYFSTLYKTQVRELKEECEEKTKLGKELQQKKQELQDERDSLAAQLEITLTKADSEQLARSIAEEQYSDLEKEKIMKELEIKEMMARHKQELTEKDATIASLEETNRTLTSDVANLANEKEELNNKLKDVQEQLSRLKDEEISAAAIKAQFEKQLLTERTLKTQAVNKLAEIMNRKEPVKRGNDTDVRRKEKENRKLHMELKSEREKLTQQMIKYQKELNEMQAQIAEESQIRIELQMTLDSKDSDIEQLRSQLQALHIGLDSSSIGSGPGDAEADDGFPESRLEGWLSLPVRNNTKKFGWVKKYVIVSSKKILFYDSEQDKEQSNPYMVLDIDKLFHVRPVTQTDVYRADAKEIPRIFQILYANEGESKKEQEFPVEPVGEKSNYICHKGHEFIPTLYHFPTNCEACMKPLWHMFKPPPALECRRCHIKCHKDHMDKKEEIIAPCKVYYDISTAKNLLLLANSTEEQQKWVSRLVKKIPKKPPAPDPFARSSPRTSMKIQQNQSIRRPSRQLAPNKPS
Chain of MAP/microtubule affinity-regulating kinase 3 (Homo sapiens) (P27448 whole entry, looked up): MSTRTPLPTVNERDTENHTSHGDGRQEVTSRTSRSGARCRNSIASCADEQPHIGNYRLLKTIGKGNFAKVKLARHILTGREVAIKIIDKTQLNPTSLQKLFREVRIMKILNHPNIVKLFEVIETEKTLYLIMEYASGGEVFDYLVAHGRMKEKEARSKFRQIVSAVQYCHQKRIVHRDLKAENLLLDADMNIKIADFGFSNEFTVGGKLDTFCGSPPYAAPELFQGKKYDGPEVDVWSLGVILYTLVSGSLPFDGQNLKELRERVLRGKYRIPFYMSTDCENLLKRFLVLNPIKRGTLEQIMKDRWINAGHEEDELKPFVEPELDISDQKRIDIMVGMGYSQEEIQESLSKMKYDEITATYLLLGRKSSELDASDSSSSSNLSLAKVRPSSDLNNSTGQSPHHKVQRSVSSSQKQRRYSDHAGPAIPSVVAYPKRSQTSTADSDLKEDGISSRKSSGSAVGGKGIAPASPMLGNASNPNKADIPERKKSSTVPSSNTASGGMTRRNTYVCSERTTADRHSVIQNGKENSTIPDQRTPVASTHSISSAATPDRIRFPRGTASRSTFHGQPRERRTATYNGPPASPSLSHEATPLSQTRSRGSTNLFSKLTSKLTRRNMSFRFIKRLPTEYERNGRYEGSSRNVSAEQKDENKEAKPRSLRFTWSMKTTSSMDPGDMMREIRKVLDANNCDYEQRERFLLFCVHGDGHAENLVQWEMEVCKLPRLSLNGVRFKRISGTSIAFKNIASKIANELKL
Chain of Ribosomal protein S6 kinase beta-1 (P23443 whole entry, looked up): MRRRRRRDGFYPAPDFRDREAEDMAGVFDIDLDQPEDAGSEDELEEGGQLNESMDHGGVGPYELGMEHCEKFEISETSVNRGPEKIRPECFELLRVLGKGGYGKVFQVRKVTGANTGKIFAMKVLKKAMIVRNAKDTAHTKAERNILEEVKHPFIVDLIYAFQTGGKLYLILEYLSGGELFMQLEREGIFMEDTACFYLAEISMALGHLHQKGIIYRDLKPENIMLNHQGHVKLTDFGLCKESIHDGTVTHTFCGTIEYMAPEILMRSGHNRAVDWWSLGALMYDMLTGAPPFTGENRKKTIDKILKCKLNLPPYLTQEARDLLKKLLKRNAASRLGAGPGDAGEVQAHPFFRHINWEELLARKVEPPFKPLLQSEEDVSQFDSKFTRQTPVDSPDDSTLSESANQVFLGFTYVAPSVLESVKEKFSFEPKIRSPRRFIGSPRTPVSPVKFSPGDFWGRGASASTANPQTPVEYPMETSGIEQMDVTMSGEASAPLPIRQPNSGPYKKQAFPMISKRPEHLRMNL
Chain of Mitogen-activated protein kinase 9 (P45984 whole entry, looked up): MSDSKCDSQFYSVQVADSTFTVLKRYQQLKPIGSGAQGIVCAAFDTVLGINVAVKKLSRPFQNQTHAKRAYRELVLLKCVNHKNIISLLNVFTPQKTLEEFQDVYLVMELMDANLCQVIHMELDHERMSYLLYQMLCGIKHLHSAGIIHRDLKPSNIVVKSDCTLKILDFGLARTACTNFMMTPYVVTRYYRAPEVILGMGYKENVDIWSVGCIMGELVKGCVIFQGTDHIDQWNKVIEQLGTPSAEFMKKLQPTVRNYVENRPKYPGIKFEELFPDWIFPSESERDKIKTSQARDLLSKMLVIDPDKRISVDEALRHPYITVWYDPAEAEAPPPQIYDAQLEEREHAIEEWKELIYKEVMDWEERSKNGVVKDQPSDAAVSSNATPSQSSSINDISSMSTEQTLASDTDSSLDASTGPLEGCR
Chain of Ribosomal protein S6 kinase alpha-1 (Homo sapiens) (Q15418 whole entry): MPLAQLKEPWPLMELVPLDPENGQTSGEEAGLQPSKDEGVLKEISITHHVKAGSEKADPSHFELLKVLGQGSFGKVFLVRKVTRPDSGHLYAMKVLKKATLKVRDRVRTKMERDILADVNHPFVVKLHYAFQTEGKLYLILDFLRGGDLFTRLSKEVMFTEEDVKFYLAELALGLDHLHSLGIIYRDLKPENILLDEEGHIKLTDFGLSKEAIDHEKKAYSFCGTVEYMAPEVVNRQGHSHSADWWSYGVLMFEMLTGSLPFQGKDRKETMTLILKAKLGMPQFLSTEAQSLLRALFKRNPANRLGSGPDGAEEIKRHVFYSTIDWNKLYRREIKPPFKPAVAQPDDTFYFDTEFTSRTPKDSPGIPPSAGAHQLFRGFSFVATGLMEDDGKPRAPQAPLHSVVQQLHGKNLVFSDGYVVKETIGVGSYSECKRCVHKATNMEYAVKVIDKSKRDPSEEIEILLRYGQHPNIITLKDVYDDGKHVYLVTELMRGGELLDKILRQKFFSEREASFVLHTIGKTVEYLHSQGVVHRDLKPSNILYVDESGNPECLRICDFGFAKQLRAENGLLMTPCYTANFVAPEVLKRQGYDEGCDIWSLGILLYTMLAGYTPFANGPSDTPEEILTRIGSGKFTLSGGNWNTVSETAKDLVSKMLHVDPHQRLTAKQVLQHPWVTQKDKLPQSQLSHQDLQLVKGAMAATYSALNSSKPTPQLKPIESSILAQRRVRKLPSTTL
Chain of Serine/threonine-protein kinase Nek7 (Homo sapiens) (Q8TDX7 whole entry, looked up): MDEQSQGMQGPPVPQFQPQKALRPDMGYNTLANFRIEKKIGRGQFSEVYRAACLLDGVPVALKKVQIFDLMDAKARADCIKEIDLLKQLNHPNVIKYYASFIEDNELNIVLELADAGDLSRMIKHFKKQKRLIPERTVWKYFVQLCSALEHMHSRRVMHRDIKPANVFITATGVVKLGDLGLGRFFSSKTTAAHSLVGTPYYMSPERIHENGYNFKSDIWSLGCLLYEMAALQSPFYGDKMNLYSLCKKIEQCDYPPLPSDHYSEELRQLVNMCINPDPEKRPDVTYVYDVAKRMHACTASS
Chain of Dual specificity mitogen-activated protein kinase kinase 1 (Homo sapiens) (Q02750 whole entry): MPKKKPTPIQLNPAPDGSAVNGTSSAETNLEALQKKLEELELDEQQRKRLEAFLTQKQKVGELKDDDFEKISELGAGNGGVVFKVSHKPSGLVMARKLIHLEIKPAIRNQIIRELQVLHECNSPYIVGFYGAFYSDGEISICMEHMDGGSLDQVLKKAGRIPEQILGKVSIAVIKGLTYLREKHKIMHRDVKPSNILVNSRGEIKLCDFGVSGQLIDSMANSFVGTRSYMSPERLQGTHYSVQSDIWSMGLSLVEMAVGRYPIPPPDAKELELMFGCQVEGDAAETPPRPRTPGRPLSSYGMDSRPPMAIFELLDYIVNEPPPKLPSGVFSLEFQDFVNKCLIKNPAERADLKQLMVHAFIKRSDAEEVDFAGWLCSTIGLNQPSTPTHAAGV
Chain of Mitogen-activated protein kinase 10 (Homo sapiens) (P53779 whole entry): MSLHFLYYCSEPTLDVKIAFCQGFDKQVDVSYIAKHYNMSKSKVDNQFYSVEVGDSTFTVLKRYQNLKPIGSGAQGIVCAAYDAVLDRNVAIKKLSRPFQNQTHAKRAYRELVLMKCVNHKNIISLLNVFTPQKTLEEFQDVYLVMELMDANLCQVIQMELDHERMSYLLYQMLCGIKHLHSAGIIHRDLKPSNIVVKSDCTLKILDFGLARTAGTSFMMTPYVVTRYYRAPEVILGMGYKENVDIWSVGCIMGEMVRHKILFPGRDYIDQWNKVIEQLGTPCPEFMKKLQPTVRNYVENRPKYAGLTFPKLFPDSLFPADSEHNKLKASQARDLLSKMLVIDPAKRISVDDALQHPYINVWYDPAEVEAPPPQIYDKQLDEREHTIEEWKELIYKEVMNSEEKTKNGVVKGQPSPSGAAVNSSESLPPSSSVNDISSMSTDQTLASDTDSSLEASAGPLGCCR

## NCCNS(=O)(=O)c1ccc(Cl)c2ccncc12
[1]
  Activity: 87%
[2]
  Activity: 91%

## Cc1ccc(-c2c(C(=O)CF)n(CCCO)c3ncnc(N)c23)cc1
[3]
  Activity: 93%
[4]
  Activity: 92%
[5]
  Activity: 79%
[6]
  Activity: 89%
[7]
  Activity: 82%
[8]
  Activity: 92%
[9]
  Activity: 85%
[10]
  Activity: 80%
[11]
  Activity: 92%
[12]
  Activity: 86%
[13]
  Activity: 85%
[14]
  Activity: 80%

## Cn1cc(C2=C(c3ccc(Cl)cc3Cl)C(=O)NC2=O)c2ccccc21
[15]
  Activity: 101%
[16]
  Activity: 74%
[17]
  Activity: 84%
[18]
  Activity: 50%
[19]
  Activity: 90%
[20]
  Activity: 76%
[21]
  Activity: 69%
[22]
  Activity: 85%
[23]
  Activity: 86%
[24]
  Activity: 79%
